Bridge positions count the residues as written; N and C are the ends. Square brackets hold non-standard residues; d marks the D form. Peptide text beside a SMILES is read from it. Mpa = O=C(O)CCS
Experiments:
[1] = tested on: insulin secretion; test: In vivo insulin secretion test
From the text: (§1) The potency of each compound is reported at the end of each example illustrating its production. […] In addition, the maximum dose employed to evaluate control of growth hormone, insulin and glucagon secretion is reported.

[2] = tested on: glucagon secretion; test: In vivo glucagon secretion test
From the text: as §1

[3] = tested on: growth hormone secretion; test: In vivo growth hormone secretion test
From the text: as §1

[4] = tested on: gastric secretion (total gastric volume, hydrogen ion secretion, hydrogen ion concentration); test: Anti-secretory activity in pylorus-ligated (Shay) rat, s.c.; type: in vivo; settings: for hydrogen ion secretion / total gastric volume: at the reported potency dose (IV 26.3 mg/kg; V and VI 4.40 mg/kg); for Antisecretory potency: lowest dose administered at which two of the three parameters (total gastric volume, hydrogen ion secretion, hydrogen ion concentration) were significantly decreased: pylorus-ligated male Charles River rats, 4 hours after ligation
Method: Each of the polypeptides of this invention was tested and found active parenterally (s.c.) in the scientifically recognized, standard test for anti-secretory activity which involves the following procedure in which male Charles River rats weighing 190-260 grams are deprived of food but not water for eighteen hours prior to use. Water is withheld during the actual experiment. The rats are weighed, anesthetized with ether and the pylorus is ligated according to the method of Shay et al., Gastroenterology, 26, 906-913 (1954). Treatment or vehicle control is then administered subcutaneously (s.c.). The rats are housed two per cage and sacrificed with CO2 four hours after ligation. The stomachs are removed, rinsed, and contents emptied into a graduated centrifuge tube. The tubes are centrifuged for twenty minutes at two thousand revolutions per minute and the volume of gastric juice is recorded. Any sample which is obviously contaminated with feces, food or blood is eliminated. An aliquot of each sample is frozen for later analysis of pepsin. The pH is measured and one milliliter of gastric juice is titrated with 0.1 N NaOH to a pH of 7.0-7.4. The data are analyzed by analysis of variance and, using the pooled error variance, t-comparisons are made between the groups.
as §1

[5] = tested on: gastric acid secretion; settings: dose as high as 2 μm/Kg, s.c.; cited from earlier work

| Molecule | Dose that effectively inhibits secretion of insulin ([1]; reference) | Dose that effectively inhibits secretion of glucagon ([2]; reference) | Dose that effectively inhibits secretion of growth hormone ([3]; reference) | Insulin secretion not inhibited at highest dose tested [1] | Glucagon secretion not inhibited at highest dose tested [2] | hydrogen ion secretion ([4]; pylorus-ligated rat) | total gastric volume ([4]; pylorus-ligated rat) | Antisecretory potency: lowest dose administered at which two of the three parameters (total gastric volume, hydrogen ion secretion, hydrogen ion concentration) were significantly decreased [4] | Growth hormone secretion not inhibited at highest dose tested [3] | effect on gastric acid secretion [5] | pH (gastric juice) ([4]; at 4.40 mg/kg, pylorus-ligated rat) |
| --- | --- | --- | --- | --- | --- | --- | --- | --- | --- | --- | --- |
| C[C@H](N)C(=O)NCC(=O)N[C@H]1CSSC[C@@H](C(=O)O)NC(=O)[C@H](CO)NC(=O)[C@H]([C@@H](C)O)NC(=O)[C@H](Cc2ccccc2)NC(=O)[C@H]([C@@H](C)O)NC(=O)[C@H](CCCCN)NC(=O)[C@H](Cc2c[nH]c3ccccc23)NC(=O)[C@H](Cc2ccccc2)NC(=O)[C@H](Cc2ccccc2)NC(=O)[C@H](CC(N)=O)NC(=O)[C@H](CCCCN)NC1=O [Somatostatin, reference compound] | about 10 micrograms per kilogram | about 10 micrograms per kilogram | about 10 micrograms per kilogram |  |  |  |  |  |  |  |  |
| C[C@@H]1NC(=O)[C@H](CCCCN)NC(=O)[C@@H](N)CSSC[C@@H](C(=O)O)NC(=O)[C@H](CO)NC(=O)[C@H]([C@@H](C)O)NC(=O)[C@H](Cc2ccccc2)NC(=O)[C@H]([C@@H](C)O)NC(=O)[C@H](CCCCN)NC(=O)[C@H](Cc2c[nH]c3ccccc23)NC(=O)[C@H](Cc2ccccc2)NC(=O)[C@H](CO)NC1=O [IV, L-Cysteinyl-L-lysyl-L alanyl-L-seryl-L-phenylalanyl-L-tryptophyl-L-lysyl-L-threonyl-L-phenylalanyl-L-threonyl-L-seryl-L-cysteine cyclic (1→12) disulfide] (H-CKASFWKTFTSC-OH; disulfide 1-12) |  |  |  | > 3.10 mg/kg | > 3.10 mg/kg | significantly reduced | significantly reduced | 26.3 mg/kg | > 3.10 mg/kg |  |  |
| C[C@@H](O)[C@@H]1NC(=O)[C@H](Cc2ccccc2)NC(=O)[C@H]([C@@H](C)O)NC(=O)[C@H](CCCCN)NC(=O)[C@H](Cc2c[nH]c3ccccc23)NC(=O)[C@H](Cc2ccccc2)NC(=O)[C@H](Cc2ccccc2)NC(=O)[C@H](CC(N)=O)NC(=O)CCSSC[C@@H](C(=O)O)NC(=O)[C@H](CO)NC1=O [V, β-Mercaptopropionyl-L-asparaginyl-L-phenylalanyl-L-phenylalanyl-L-tryptophyl-L-lysyl-L-threonyl-L-phenylalanyl-L-threonyl-L-seryl-L-cysteine cyclic (1→11) disulfide] ([Mpa]NFFWKTFTSC-OH; disulfide 1-11) |  |  |  | > 1.90 mg/kg | > 1.90 mg/kg | significantly reduced | significantly reduced | 4.40 mg/kg | > 1.90 mg/kg |  |  |
| D-Lys^9 -SRIF |  |  |  |  |  |  |  |  |  | no appreciable effect |  |
| CSCC[C@@H]1NC(=O)[C@H](Cc2ccccc2)NC(=O)[C@H](CC(N)=O)NC(=O)[C@H](CCCCN)NC(=O)[C@@H](NC(=O)CNC(=O)[C@H](C)N)CSSC[C@@H](C(=O)O)NC(=O)[C@H](CO)NC(=O)[C@H]([C@@H](C)O)NC(=O)[C@H](Cc2ccccc2)NC(=O)[C@H]([C@@H](C)O)NC(=O)[C@H](CCCCN)NC(=O)[C@H](Cc2c[nH]c3ccccc23)NC1=O [VI, L-Alanyl-glycyl-L-cysteinyl-L-lysyl-L-asparaginyl-L-phenylalanyl-L-methionyl-L-tryptophyl-L-lysyl-L-threonyl-L-phenylalanyl-L-threonyl-L-seryl-L-cystein cyclic (3→14) disulfide] (H-AGCKNFMWKTFTSC-OH; disulfide 3-14) |  |  |  | > 1.0 mg/kg | > 1.0 mg/kg | significantly reduced | significantly reduced | 4.40 mg/kg | > 1.0 mg/kg |  | significantly reduced |
